This test deals with LPS-induced TNFα production in mouse peritoneal macrophages. In words: Inhibition of TNF-α production in LPS-stimulated macrophages. It counts as cell-based. As to conditions: Peritoneal macrophage, LPS 0.1 μg/ml, 4 hours. On the procedure:
In order to measure inhibitory activity on LPS-induced TNFα production in mouse peritoneal macrophages according to Eur. J. Pharmacol., 230, 9-14 (1993), the following assay was employed. 1) Preparation of Mouse Peritoneal Macrophages Ten percent proteose peptone (2 ml/animal) was administered intraperitoneally to male C3H/HeN mice (6- to 8-week-old) for inducing peritoneal macrophages. Four days after the proteose peptone administration, mice were sacrificed by the dislocation of cervical vertebrate, bled with cutting of their carotid artery, douched intraperitoneally with ice-cooled RPMI 1640 (6 ml), massaged, and lavage fluids wherein peritoneal exudate cells suspended were harvested. The resulting cell suspension was centrifuged at 200×g, and obtained cell pellets were treated with a Tris-ammonium buffer for 1 minute to hemolyze erythrocyte contaminants. The resulting cells were washed twice with 10% FBS/RPMI 1640, resuspended, and seeded on 96-well plates (Sumitomo Bakelite, Japan) at 5×10^5 cells/0.2 ml/well. After pre-incubation for 2 hours in an atmosphere of 5% CO2/95% air, each well was rinsed 3 times with PBS(−) to remove non-adhesive cells. 2) Cell Treatment Each test compound was dissolved in DMSO, and then in 10% FBS/RPMI 1640 to make the final DMSO concentration 0.1%. The resultant test compound solution was used herein. After pre-incubation for 0.5 hr in the above test compound solution, an aliquot of macrophages prepared in the above (1) was admixed with LPS (E. coli serotype 0127: B8; Sigma) to adjust the final LPS concentration to 0.1 μg/ml. Four hours later, culture supernatants were harvested and stored at −80° C. Amounts of TNFα in the culture supernatants were measured with a mouse TNFα ELISA kit (Quantikine/trade name; R & D Systems) according to manuals attached to the kit. For control groups, an aliquot of macrophages prepared in the above (1) was admixed with LPS to adjust the final LPS concentration to 0.1 μg/ml and then treated in the same manner as aforementioned. The resultant samples were used in obtaining the concentration of each test compound required for 50% inhibition (IC50) to each control group.

Where [1] appears, read: read-out: IC50 for inhibition of TNF-α production.
Setting [2] is: read-out: IC50 for inhibition of TNF-α production (molar).

The structures appear in SMILES notation. Where two headings read alike, the source gives them in different places.

Drawing on patent publication US6642250B2, “1,8-naphthyridin-2(1H)-one derivatives” (Grelan Pharmaceutical Co., Ltd., priority 1999, dated 2003), this text covers IC50 for two compounds.

With `COc1ccc(C2CNC(=O)C2)cc1OC1CCCC1` (single isomer, unassigned) [Rolipram, rolipram, reference compound], the IC50 is 0.37 µg/mL under setting [1] and around 1300 nM under setting [2].

For `O=c1c(CCCc2ccncc2)cc2cccnc2n1-c1cccc([N+](=O)[O-])c1` [Example No. 8, 1-(3-Nitrophenyl)-3-[3-(pyridin-4-yl)propyl]-1,8-naphthyridin-2(1H)-one], the IC50 is, setting by setting: under setting [1], 0.34 µg/mL; under setting [2], around 880 nM.

As a reminder, the IC50 is the concentration at which inhibition is half-maximal.
